Experimental data reported in ChEMBL document CHEMBL5038632, “Discovery and Characterization of Potent Dual P-Glycoprotein and CYP3A4 Inhibitors: Design, Synthesis, Cryo-EM Analysis, and Biological Evaluations” (J Med Chem, 2022).

Each compound was assayed on MES-SA/Dx5 (assay: Cytotoxicity in human MES-SA/Dx5 cells assessed as reduction in cell viability at 1.28 uM incubated for 3 days by MTT assay relative to control). Details: mes-sa/dx5, 72 h, time 3 day.
Assay type: toxicity, cell-based
Compound `COc1cc(NC(=O)c2cc(=O)c3ccccc3o2)c(-c2nnn(-c3ccc(CCN4CCn5cncc5C4)cc3)n2)cc1OCc1ccccc1` has an Activity of 13%.
`COc1cc2c(cc1OC)CN(CCc1ccc(-n3nnc(-c4cc(OC)c(OC)cc4NC(=O)c4ccc(-n5ccnc5)cc4)n3)cc1)CC2` showed an Activity of 5%.
For `COc1cc2c(cc1OC)CN(CCc1ccc(-n3nnc(-c4cc(OCc5cccnc5)ccc4NC(=O)c4cc(=O)c5ccccc5o4)n3)cc1)CC2`, the Activity was 3%.
`COc1cc2c(cc1OC)CN(CCc1ccc(-n3nnc(-c4cc(OC)c(OC)cc4NC(=O)c4cc(=O)c5cc(Br)ccc5o4)n3)cc1)CC2` was tested, and the Activity was 30%.
In the case of `COc1cc(NC(=O)c2cc(=O)c3ccccc3o2)c(-c2nnn(-c3ccc(CCN4CCn5cncc5C4)cc3)n2)cc1OC`, the Activity is reported as 6%.
With `COc1cc(NC(=O)c2cnc3ccccc3c2)c(-c2nnn(-c3ccc(CCN4CCc5cnccc5C4)cc3)n2)cc1OCc1ccccc1` the Activity was 3%.
Work on `COc1cc(NC(=O)c2cc(=O)c3ccccc3o2)c(-c2nnn(-c3ccc(CCN4CCc5cnccc5C4)cc3)n2)cc1OC` yielded an Activity of 1%.
With `COc1cc2c(cc1OC)CN(CCc1ccc(-n3nnc(-c4cc(OCc5ccccc5)c(OC)cc4NC(=O)c4cc(=O)c5ccccc5o4)n3)cc1)CC2` the Activity was 30%.
`COc1cc2c(cc1OC)CN(CCc1ccc(-n3nnc(-c4cc(OC)c(OC)cc4NC(=O)c4ccc(-c5ccncc5)cc4)n3)cc1)CC2` showed an Activity of 11%.
Work on `COc1cc(NC(=O)c2cc(=O)c3ccccc3o2)c(-c2nnn(-c3ccc(CCN4CCc5ccncc5C4)cc3)n2)cc1OC` yielded an Activity of 1%.
`COc1cc(NC(=O)c2cc(=O)c3ccccc3o2)c(-c2nnn(-c3ccc(CCN4CCc5cc(-n6ccnc6)ccc5C4)cc3)n2)cc1OC` gave an Activity of 10%.
Work on `COc1cc2c(cc1OC)CN(CCc1ccc(-n3nnc(-c4cc(OCCc5cccnc5)ccc4NC(=O)c4cc(=O)c5ccccc5o4)n3)cc1)CC2` yielded an Activity of 1%.

What follows are compounds tested against Cytochrome P450 3A4 (Homo sapiens, UniProt P08684) (assay: Inhibition of CYP3A4 in human liver microsomes using IPA as substrate preincubated for 10 mins followed by NADPH generating system addition and measured after 20 mins). Details: not given.
Cytochrome P450 3A4, sequence (P08684 whole entry): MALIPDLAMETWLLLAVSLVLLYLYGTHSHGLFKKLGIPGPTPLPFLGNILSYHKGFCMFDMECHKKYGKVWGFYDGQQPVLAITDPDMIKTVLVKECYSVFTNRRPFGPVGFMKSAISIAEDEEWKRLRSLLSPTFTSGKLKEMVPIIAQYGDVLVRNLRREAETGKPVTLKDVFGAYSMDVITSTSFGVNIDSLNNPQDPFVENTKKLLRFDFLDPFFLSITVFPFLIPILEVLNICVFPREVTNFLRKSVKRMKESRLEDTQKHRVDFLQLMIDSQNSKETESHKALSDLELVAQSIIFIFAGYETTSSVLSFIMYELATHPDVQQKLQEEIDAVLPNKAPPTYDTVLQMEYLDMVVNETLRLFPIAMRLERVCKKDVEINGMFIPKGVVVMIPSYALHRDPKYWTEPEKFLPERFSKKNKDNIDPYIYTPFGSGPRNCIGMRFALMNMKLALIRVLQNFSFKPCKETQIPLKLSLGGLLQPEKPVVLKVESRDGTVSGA
`COc1cc(NC(=O)c2cc(=O)c3ccccc3o2)c(-c2nnn(-c3ccc(CCN4CCn5cncc5C4)cc3)n2)cc1OCc1ccccc1` was tested, and the IC50 was 2040 nM.
With `COc1cc2c(cc1OC)CN(CCc1ccc(-n3nnc(-c4cc(OC)c(OC)cc4NC(=O)c4ccc(-n5ccnc5)cc4)n3)cc1)CC2` the IC50 was 516 nM.
In the case of `COc1cc2c(cc1OC)CN(CCc1ccc(-n3nnc(-c4cc(OCc5cccnc5)ccc4NC(=O)c4cc(=O)c5ccccc5o4)n3)cc1)CC2`, the IC50 is reported as > 9000 nM.
In the case of `COc1cc2c(cc1OC)CN(CCc1ccc(-n3nnc(-c4cc(OC)c(OC)cc4NC(=O)c4cc(=O)c5cc(Br)ccc5o4)n3)cc1)CC2`, the IC50 is reported as > 9000 nM.
`COc1cc(NC(=O)c2cc(=O)c3ccccc3o2)c(-c2nnn(-c3ccc(CCN4CCn5cncc5C4)cc3)n2)cc1OC` showed an IC50 of 149 nM.
In the case of `COc1cc(NC(=O)c2cnc3ccccc3c2)c(-c2nnn(-c3ccc(CCN4CCc5cnccc5C4)cc3)n2)cc1OCc1ccccc1`, the IC50 is reported as 851 nM.
For `COc1cc(NC(=O)c2cc(=O)c3ccccc3o2)c(-c2nnn(-c3ccc(CCN4CCc5cnccc5C4)cc3)n2)cc1OC`, the IC50 was 1070 nM.
For `COc1cc2c(cc1OC)CN(CCc1ccc(-n3nnc(-c4cc(OCc5ccccc5)c(OC)cc4NC(=O)c4cc(=O)c5ccccc5o4)n3)cc1)CC2`, the IC50 was > 9000 nM.
With `COc1cc2c(cc1OC)CN(CCc1ccc(-n3nnc(-c4cc(OC)c(OC)cc4NC(=O)c4ccc(-c5ccncc5)cc4)n3)cc1)CC2` the IC50 was > 9000 nM.
With `COc1cc(NC(=O)c2cc(=O)c3ccccc3o2)c(-c2nnn(-c3ccc(CCN4CCc5ccncc5C4)cc3)n2)cc1OC` the IC50 was 1050 nM.
In the case of `COc1cc(NC(=O)c2cc(=O)c3ccccc3o2)c(-c2nnn(-c3ccc(CCN4CCc5cc(-n6ccnc6)ccc5C4)cc3)n2)cc1OC`, the IC50 is reported as 305 nM.
`COc1cc2c(cc1OC)CN(CCc1ccc(-n3nnc(-c4cc(OCCc5cccnc5)ccc4NC(=O)c4cc(=O)c5ccccc5o4)n3)cc1)CC2` gave an IC50 of 726 nM.

What follows are compounds tested on MDR1 (assay: Apparent permeability across apical to basolateral side in MDCKII-MDR1 cells at 3 uM by LC/MS/MS analysis). Details: dog, MDCK-MDR1.
Assay type: ADME, cell-based, Canis lupus familiaris
In the case of `COc1cc(NC(=O)c2cc(=O)c3ccccc3o2)c(-c2nnn(-c3ccc(CCN4CCn5cncc5C4)cc3)n2)cc1OCc1ccccc1`, the Papp A→B at 3 µM is reported as < 0.02 ×10⁻⁶ cm/s.
In the case of `COc1cc(NC(=O)c2cc(=O)c3ccccc3o2)c(-c2nnn(-c3ccc(CCN4CCc5cnccc5C4)cc3)n2)cc1OC`, the Papp A→B at 3 µM is reported as < 0.02 ×10⁻⁶ cm/s.

What follows are compounds tested on MDR1 (assay: Apparent permeability across basolateral side to apical side in MDCKII-MDR1 cells at 3 uM by LC/MS/MS analysis). Details: dog, MDCK-MDR1.
Assay type: ADME, cell-based, Canis lupus familiaris
`COc1cc(NC(=O)c2cc(=O)c3ccccc3o2)c(-c2nnn(-c3ccc(CCN4CCn5cncc5C4)cc3)n2)cc1OCc1ccccc1` was tested, and the Papp B→A at 3 µM was < 0.02 ×10⁻⁶ cm/s.
For `COc1cc(NC(=O)c2cc(=O)c3ccccc3o2)c(-c2nnn(-c3ccc(CCN4CCc5cnccc5C4)cc3)n2)cc1OC`, the Papp B→A at 3 µM was < 0.02 ×10⁻⁶ cm/s.
